# Experimental data: patent publication US4891360A, “6-amino anthracyclines, process for their preparation and use thereof” (Farmitalia Carlo Erba S.r.l., priority 1986, dated 1990)
# Read-outs that look alike come from different tables or passages of the source.
# Key:
# [1] = test system: Human Colon Adenocarcinoma Cell Line sensitive to doxorubicin (LoVo); assay: In vitro cytotoxicity, colony inhibition test on human colon adenocarcinoma cell line sensitive to doxorubicin (LoVo); format: cell-based; details: read-out: ID50 (dose which gives 50% reduction of cell number in comparison with untreated controls), LoVo
# Experimental: (§1) Compound II (4-demethoxy-6-deoxy-6-aminodaunorubicin) and Compound III (4-demethoxy-6-deoxy-6-aminodoxorubicin) have been tested "in vitro" against Human Colon Adenocarcinoma Cell Line sensitive to doxorubicin (LoVo) and resistant to doxorubicin (LoVo/DX) in comparison with daunorubicin (DNR) and doxorubicin (DX).
# (§2) In Vitro cytotoxicity (a) on human colon adenocarcinoma cell
# (§3) line sensitive (LoVo) and resistant to doxorubicin (LoVo/DX)
# (§4) (a)Colony inhibition test: 4 hours treatment
# (§5) (b)dose which gives 50% reduction of cell number in comparison with
# (§6) In Vitro cytotoxicity (a) on human colon adenocarcinoma
# (§7) cell line sensitive (LoVo) and resistant to doxorubicin
# (§8) (LoVo/DX) of 4-demethoxy-6-deoxy-6-amino DX
# (§9) (a)Colony inhibition test: -24 hours treatment
# [2] = test system: Human Colon Adenocarcinoma Cell Line resistant to doxorubicin (LoVo/DX); assay: In vitro cytotoxicity, colony inhibition test on human colon adenocarcinoma cell line resistant to doxorubicin (LoVo/DX); format: cell-based; details: read-out: ID50 (dose which gives 50% reduction of cell number in comparison with untreated controls), LoVo/DX
# Experimental: as §1, §2, §3, §4, §5, §6, §7, §8, §9
# [3] = Table 1, colony inhibition test, 4 hours treatment
# [4] = Table 2, colony inhibition test, 24 hours treatment
structure (smiles),measurement,setting,value
"CC(=O)[C@]1(O)Cc2c(O)c3c(c(N)c2[C@@H](O[C@H]2C[C@H](N)[C@H](O)[C@H](C)O2)C1)C(=O)c1ccccc1C3=O [Compound II, 4-demethoxy-6-deoxy-6-amino daunorubicin]",IC50,[1]; [3],0.09 µg/mL
same,IC50,[2]; [3],4.4 µg/mL
"C[C@@H]1O[C@@H](O[C@H]2C[C@](O)(C(=O)CO)Cc3c(O)c4c(c(N)c32)C(=O)c2ccccc2C4=O)C[C@H](N)[C@@H]1O [Compound III, 4-demethoxy-6-deoxy-6-amino doxorubicin]",IC50,[1]; [4],0.099 µg/mL
same,IC50,[2]; [4],1.15 µg/mL
"COc1cccc2c1C(=O)c1c(O)c3c(c(O)c1C2=O)C[C@@](O)(C(C)=O)C[C@@H]3O[C@H]1C[C@H](N)[C@H](O)[C@H](C)O1 [DNR, daunorubicin]",IC50,[1]; 4 h,0.042 µg/mL
same,IC50,[2]; 4 h,2.36 µg/mL
"COc1cccc2c1C(=O)c1c(O)c3c(c(O)c1C2=O)C[C@@](O)(C(=O)CO)C[C@@H]3O[C@H]1C[C@H](N)[C@H](O)[C@H](C)O1 [DX, doxorubicin]",IC50,[1]; 24 h,0.0266 µg/mL
same,IC50,[2]; 24 h,0.833 µg/mL
